From PMC8132342, “Antimalarial properties and molecular docking analysis of compounds from Dioscorea bulbifera L. as new antimalarial agent candidates” (BMC Complementary Medicine and Therapies, 2021)
Like-named read-outs stand apart in the source and are kept apart here.

Assays:
[1] = system: chloroquine (CQ)-resistant P. falciparum (K1 strain); assay: Antimalarial activity, 3H-hypoxanthine uptake inhibition, K1 strain; format: cell-based, Plasmodium falciparum
Procedure: (§1) The culture of P. falciparum malaria parasites was continuously performed using standard methods with some modifications. RPMI-1640 medium was supplemented with noninfected type O-positive red blood cells (2% hematocrit), 2 mg/ml sodium bicarbonate, 10 μg/ml hypoxanthine (Sigma-Aldrich, New Delhi, India), 4.8 mg/ml HEPES (Himedia, Mumbai, India), 10% human AB serum and 2.5 μg/ml gentamicin (Sigma-Aldrich, New Delhi, India).
(§2) Antimalarial activity of extracts and compounds from D. bulbifera against P. falciparum K1 and 3D7 strains were assessed by measuring ^3H-hypoxanthine incorporated in parasite nucleic acids using the modified technique of Desjadins et al.. The red cell suspension at 1–2% hematocrit containing 1% ring stage P. falciparum-infected red blood cells was incubated with various concentrations of extracts (2.50–80 μg/ml) and pure compounds (2.5–80 μM) in 96-well culture plates. Parasites were incubated at 37 °C for 24 h, then ^3H-hypoxanthine (25 μl of 0.025 μCi/μl) was added to each well, and the plates were maintained under conditions of 93% N2, 3% O2 and 4% CO2 at 37 °C for an additional 24 h. The samples were transferred to a glass fiber filter (Wallac, Turku, Finland). ^3H-Hypoxanthine uptake was then assessed using a MicroBeta TriLux Liquid Scintillation Counter (PerkinElmer, USA). Each assay condition was performed in triplicate independently. The concentration of samples that inhibited the uptake of ^3H-hypoxanthine by 50% (IC50) assessed by log dose response curve using WinNonlin software version 4.1 (Pharsight Corporation, CA) was used as a marker of antimalarial effect potency.

[2] = system: CQ-sensitive P. falciparum (3D7 strain); assay: Antimalarial activity, 3H-hypoxanthine uptake inhibition, 3D7 strain; format: cell-based; conditions: Plasmodium falciparum
Procedure: as §1, §2

[3] = In vitro cytotoxicity, MTT assay; format: cell-based; conditions: African green monkey
Procedure: The toxicity of D. bulbifera extracts and isolated compounds was assessed by 3-(4,5-dimethythiazol-2-yl)-2,5-diphenyl tetrazolium bromide (MTT) assay according to a previous method. Briefly, Vero cells (Elabscience, Wuhan, Hubei, China) were seeded into 96-well plates at a density of 10^4 cell/ml and incubated for 24 h at 37 °C with 5% CO2. Cells were then treated with various concentrations of extracts and compounds for 48 h at 37 °C with 5% CO2. Doxorubicin (Sigma-Aldrich, New Delhi, India) was used as a toxic control. Subsequently, MTT solution was added to each well, and the plate was incubated for 2 h in a CO2 incubator. The medium was then removed, and 100 μl of DMSO was added to each well. Finally, the optical density was determined at a wavelength of 590 nm using a microplate reader. The assay was performed in duplicate.

[4] = Plasmodium falciparum, K1, pure compounds, P. falciparum K1 strain, mean ± S.D. of three determinations, read-out: IC50 K1
[5] = Vero cells, MTT, 48 h, read-out: CC50
[6] = pure compounds, P. falciparum 3D7 strain, mean ± S.D. of three determinations, read-out: IC50 3D7

In the case of `C[C@H]1[C@H](OC(=O)CCC(=O)O)O[C@@H]2O[C@@]3(C)CC[C@H]4[C@H](C)CC[C@@H]1[C@@]24OO3` [Artesunate, artesunate, reference compound], the IC50 ([1]; Plasmodium falciparum, K1, positive controls (footnote d), P. falciparum K1 strain, read-out: IC50 K1) is reported as 0.00053 ± 4e-05 µM and the IC50 ([2]; positive controls (footnote d), P. falciparum 3D7 strain, read-out: IC50 3D7) is reported as 0.00181 ± 0.00019 µM.

`CCN(CC)CCCC(C)Nc1ccnc2cc(Cl)ccc12` (stereo not drawn) [Chloroquine, chloroquine, reference compound] showed an IC50 ([1]; Plasmodium falciparum, K1, read-out: IC50 K1) of 0.103 ± 0.0045 µM and an IC50 ([2]; 3D7, read-out: IC50 3D7) of 0.00991 ± 0.00056 µM.

Work on `CC(=O)OC1CC2C(=O)OC(c3ccoc3)CC2(C)C2CC3CC(C(=O)O3)C12` (stereo not drawn) [Compound 1, 8-epidiosbulbin E acetate] yielded an IC50 [1, 4] of over 80 µM, a CC50 at 48 h [3, 5] of over 80 µM and an IC50 [2, 6] of over 80 µM.

Work on `CC(=O)OC1CC2(O)C(=O)OC(c3ccoc3)CC2(C)C2CC3CC(C(=O)O3)C12` (stereo not drawn) [Compound 2, 15,16-epoxy-6α-O-acetyl-8β-hydroxy-19-nor-clero-13(16),14-diene-17,12;18,2-diolide] yielded an IC50 [1, 4] of over 80 µM, a CC50 at 48 h [3, 5] of over 80 µM and an IC50 [2, 6] of over 80 µM.

`CCC(C(C)C)C(C)CC(C)C1CCC2C3C=CC4CC(OC5OC(CO)C(O)C(O)C5O)CCC4(C)C3CCC12C` (stereo not drawn) [Compound 3] showed an IC50 [1, 4] of over 80 µM, a CC50 at 48 h [3] of over 80 µM and an IC50 [2, 6] of over 80 µM.

In the case of `COc1c(-c2ccc(O)c(O)c2)oc2cc(O)cc(OC)c2c1=O` [Compound 4, 3,5-dimethoxy quercetin], the IC50 [1, 4] is reported as 44 ± 1.47 µM, the CC50 at 48 h [3, 5] is reported as over 80 µM and the IC50 [2, 6] is reported as 70.8 ± 2.32 µM.

Compound `Oc1cc(O)c2c(c1)O[C@H](c1ccc(O)c(O)c1)[C@@H](O)C2` [Compound 5, (+)-catechin] has an IC50 [1, 4] of over 80 µM, a CC50 at 48 h [3, 5] of over 80 µM and an IC50 [2, 6] of over 80 µM.

With `O=c1c(O)c(-c2ccc(O)c(O)c2)oc2cc(O)cc(O)c12` [Compound 6, quercetin] the “fold higher activity than 3,5-dimethoxyquercetin (4)” value ([1]; K1 strain) was “approximately 1.5 fold”, the “fold higher activity than quercetin-3-O-β-D-galactopyranoside (14)” value ([1]; K1 strain) was about 2 fold and the IC50 [1, 4] was 28.5 ± 0.9 µM. The inhibition at 80 µM ([1]; Plasmodium falciparum, at a concentration of 80 μM, K1 strain) was 97%, the CC50 at 48 h [3, 5] was over 80 µM and the IC50 [2, 6] was 51 ± 7.28 µM.

`O=c1c(O)c(-c2ccc(O)cc2)oc2cc(O)cc(O)c12` [Compound 7, kaempferol] gave an IC50 [1, 4] of 62.5 ± 1.33 µM, a CC50 at 48 h [3, 5] of over 80 µM and an IC50 [2, 6] of over 80 µM.

In the case of `NC(=O)NC1NC(=O)NC1=O` (stereo not drawn) [Compound 8, allantoin], the IC50 [1, 4] is reported as over 80 µM, the CC50 at 48 h [3, 5] is reported as over 80 µM and the IC50 [2, 6] is reported as over 80 µM.

Compound `Oc1cc(O)cc(CCc2ccc(O)cc2O)c1` [Compound 9, 2,4,3′,5′-tetrahydroxybibenzyl] has an IC50 [1, 4] of 40 ± 2.5 µM, a CC50 at 48 h [3] of 16.7 µM and an IC50 [2, 6] of 58.9 ± 4.31 µM.

With `Oc1cc(O)c2c(c1)CCc1cc(O)c(O)cc1-2` [Compound 10, 2,4,6,7-tetrahydroxy-9,10-dihydrophenanthrene] the IC50 [1, 4] was 58.3 ± 1.96 µM, the CC50 at 48 h [3, 5] was over 80 µM and the IC50 [2, 6] was over 80 µM.

Work on `O=c1c(O)c(-c2cc(O)c(O)c(O)c2)oc2cc(O)cc(O)c12` [Compound 11, myricetin] yielded an IC50 [1, 4] of over 80 µM, a CC50 at 48 h [3, 5] of over 80 µM and an IC50 [2, 6] of over 80 µM.

`O=c1c(O[C@@H]2O[C@H](CO)[C@@H](O)[C@H](O)[C@H]2O)c(-c2ccc(O)c(O)c2)oc2cc(O)cc(O)c12` [Compound 13, quercetin-3-O-β-D-glucopyranoside] showed an IC50 [1, 4] of over 80 µM, a CC50 at 48 h [3, 5] of over 80 µM and an IC50 [2, 6] of over 80 µM.

Compound `O=c1c(O[C@@H]2O[C@H](CO)[C@H](O)[C@H](O)[C@H]2O)c(-c2ccc(O)c(O)c2)oc2cc(O)cc(O)c12` [Compound 14, quercetin-3-O-β-D-galactopyranoside] has an IC50 [1, 4] of 48.9 µM, an IC50 ([1]; pure compounds, P. falciparum K1 strain, mean ± S.D. of three determinations, read-out: IC50 K1) of 48.3 ± 1.21 µM and a CC50 at 48 h [3, 5] of over 80 µM. For the same compound, the IC50 [2, 6] was 68.9 ± 4.31 µM.

With `COc1cccc2c1C(=O)c1c(O)c3c(c(O)c1C2=O)C[C@@](O)(C(=O)CO)C[C@@H]3O[C@H]1C[C@H](N)[C@H](O)[C@H](C)O1` [Doxorubicin, reference compound] the CC50 at 48 h [3, 5] was 1.96 ± 0.11 µM.
